Test results as given in patent US10112941B2, “Tricyclic compounds as anticancer agents” (BRISTOL-MYERS SQUIBB COMPANY, priority 2013, dated 2018).

Target: BRD4 (Homo sapiens, UniProt O60885)
Assay: Time Resolved Fluorescence Resonance Energy Transfer (TR-FRET) binding assay, BRD4
Conditions: one of the FRET assays described; read-out: FRET BRD4 IC50

Row | Compound | IC50 [nM]
1 | Cc1noc(C)c1-c1cnc2c3ccc(C(C)(C)O)cc3n(C(c3ccccc3)C3CCOCC3)c2c1 (single isomer, unassigned) [Example 1, 2-[3-(Dimethyl-1,2-oxazol-4-yl)-5-[oxan-4-yl(phenyl)methyl]-5H-pyrido[3,2-b]indol-7-yl]propan-2-ol] | < 5
2 | Cc1noc(C)c1-c1cnc2c3ccc(C(C)(C)O)cc3n(C(c3ccccc3)C3CCOCC3)c2c1 (single isomer, unassigned) [Example 2, 2-[3-(Dimethyl-1,2-oxazol-4-yl)-5-[oxan-4-yl(phenyl)methyl]-5H-pyrido[3,2-b]indol-7-yl]propan-2-ol] | < 5
3 | Cc1noc(C)c1-c1cnc2c3ccc(C(C)(C)O)cc3n(C(c3ccccc3)C3CCC(F)(F)CC3)c2c1 (single isomer, unassigned) [Example 27, 2-{5-[(4,4-Difluorocyclohexyl)(phenyl)methyl]-3-(dimethyl-1,2-oxazol-4-yl)-5H-pyrido[3,2-b]indol-7-yl}propan-2-ol] | < 5
4 | Cc1noc(C)c1-c1cnc2c3ccc(C(C)(C)O)cc3n(C(c3ccccc3)C3CCC(F)(F)CC3)c2c1 (single isomer, unassigned) [Example 28, 2-{5-[(4,4-Difluorocyclohexyl)(phenyl)methyl]-3-(dimethyl-1,2-oxazol-4-yl)-5H-pyrido[3,2-b]indol-7-yl}propan-2-ol] | < 5
5 | Cc1noc(C)c1-c1cnc2c3ccc(C(C)(C)O)cc3n(C(c3ccccc3)c3cscn3)c2c1 (single isomer, unassigned) [Example 29, 2-[3-(Dimethyl-1,2-oxazol-4-yl)-5-[phenyl(1,3-thiazol-4-yl)methyl]-5H-pyrido[3,2-b]indol-7-yl]propan-2-ol] | < 5
6 | Cc1noc(C)c1-c1cnc2c3ccc(C(C)(C)O)cc3n(C(c3ccccc3)c3cscn3)c2c1 (single isomer, unassigned) [Example 30, 2-[3-(Dimethyl-1,2-oxazol-4-yl)-5-[phenyl(1,3-thiazol-4-yl)methyl]-5H-pyrido[3,2-b]indol-7-yl]propan-2-ol] | < 5
7 | Cc1noc(C)c1-c1cnc2c3ccc(C(C)(C)O)cc3n(C(c3ccccc3)C3(F)CCC3)c2c1 (single isomer, unassigned) [Example 32, 2-[3-(Dimethyl-1,2-oxazol-4-yl)-5-[(1-fluorocyclobutyl)(phenyl)methyl]-5H-pyrido[3,2-b]indol-7-yl]propan-2-ol] | < 5
8 | Cc1noc(C)c1-c1cnc2c3ccc(C(C)(C)O)cc3n(C(c3ccccc3)C3(F)CCC3)c2c1 (single isomer, unassigned) [Example 33, 2-[3-(Dimethyl-1,2-oxazol-4-yl)-5-[(1-fluorocyclobutyl)(phenyl)methyl]-5H-pyrido[3,2-b]indol-7-yl]propan-2-ol] | < 5
9 | Cc1noc(C)c1-c1cnc2c3ccc(C(C)(C)O)cc3n(C(CCC(F)(F)F)c3cocn3)c2c1 (single isomer, unassigned) [Example 34, 2-[3-(Dimethyl-1,2-oxazol-4-yl)-5-[4,4,4-trifluoro-1-(1,3-oxazol-4-yl)butyl]-5H-pyrido[3,2-b]indol-7-yl]propan-2-ol] | < 5
10 | Cc1noc(C)c1-c1cnc2c3ccc(C(C)(C)O)cc3n(C(CCC(F)(F)F)c3cocn3)c2c1 (single isomer, unassigned) [Example 35, 2-[3-(Dimethyl-1,2-oxazol-4-yl)-5-[4,4,4-trifluoro-1-(1,3-oxazol-4-yl)butyl]-5H-pyrido[3,2-b]indol-7-yl]propan-2-ol] | < 25
11 | Cc1noc(C)c1-c1cnc2c3ccc(C(C)(C)O)cc3n(C(CCC(F)(F)F)c3cnoc3)c2c1 (single isomer, unassigned) [Example 36, 2-[3-(Dimethyl-1,2-oxazol-4-yl)-5-[4,4,4-trifluoro-1-(1,2-oxazol-4-yl)butyl]-5H-pyrido[3,2-b]indol-7-yl]propan-2-ol] | < 25
12 | Cc1noc(C)c1-c1cnc2c3ccc(C(C)(C)O)cc3n(C(CCC(F)(F)F)c3cnoc3)c2c1 (single isomer, unassigned) [Example 37, 2-[3-(Dimethyl-1,2-oxazol-4-yl)-5-[4,4,4-trifluoro-1-(1,2-oxazol-4-yl)butyl]-5H-pyrido[3,2-b]indol-7-yl]propan-2-ol] | < 5
13 | Cc1noc(C)c1-c1cnc2c3ccc(S(C)(=O)=O)cc3n(C(CCC(F)(F)F)c3ccccc3)c2c1 (single isomer, unassigned) [Example 38, 4-[7-Methanesulfonyl-5-(4,4,4-trifluoro-1-phenylbutyl)-5H-pyrido[3,2-b]indol-3-yl]-3,5-dimethyl-1,2-oxazole] | < 25
14 | Cc1noc(C)c1-c1cnc2c3ccc(S(C)(=O)=O)cc3n(C(CCC(F)(F)F)c3ccccc3)c2c1 (single isomer, unassigned) [Example 39, 4-[7-Methanesulfonyl-5-(4,4,4-trifluoro-1-phenylbutyl)-5H-pyrido[3,2-b]indol-3-yl]-3,5-dimethyl-1,2-oxazole] | < 1500
15 | Cc1oncc1-c1cnc2c3ccc(C(C)(C)O)cc3n(C(c3ccc(F)cc3)C3CCOCC3)c2c1 (single isomer, unassigned) [Example 40, 2-{5-[(4-Fluorophenyl)(oxan-4-yl)methyl]-3-(5-methyl-1,2-oxazol-4-yl)-5H-pyrido[3,2-b]indol-7-yl}propan-2-ol] | < 25
16 | Cc1oncc1-c1cnc2c3ccc(C(C)(C)O)cc3n(C(c3ccc(F)cc3)C3CCOCC3)c2c1 (single isomer, unassigned) [Example 41, 2-{5-[(4-Fluorophenyl)(oxan-4-yl)methyl]-3-(5-methyl-1,2-oxazol-4-yl)-5H-pyrido[3,2-b]indol-7-yl}propan-2-ol] | < 1500
17 | Cc1nocc1-c1cnc2c3ccc(C(C)(C)O)cc3n(C(c3ccc(F)cc3)C3CCOCC3)c2c1 (single isomer, unassigned) [Example 42, 2-{5-[(4-Fluorophenyl)(oxan-4-yl)methyl]-3-(3-methyl-1,2-oxazol-4-yl)-5H-pyrido[3,2-b]indol-7-yl}propan-2-ol] | < 25
18 | Cc1nocc1-c1cnc2c3ccc(C(C)(C)O)cc3n(C(c3ccc(F)cc3)C3CCOCC3)c2c1 (single isomer, unassigned) [Example 43, 2-{5-[(4-Fluorophenyl)(oxan-4-yl)methyl]-3-(3-methyl-1,2-oxazol-4-yl)-5H-pyrido[3,2-b]indol-7-yl}propan-2-ol] | < 1500
19 | Cc1nnn(C)c1-c1cnc2c3ccc(C(C)(C)O)cc3n([C@H](c3ccccc3)C3CCOCC3)c2c1 (single isomer, unassigned) [Example 54] | < 5
20 | Cc1nnn(C)c1-c1cnc2c3ccc(C(C)(C)O)cc3n([C@@H](c3ccccc3)C3CCOCC3)c2c1 (single isomer, unassigned) [Example 55, 2-[3-(Dimethyl-1H-1,2,3-triazol-5-yl)-5-[oxan-4-yl(phenyl)methyl]-5H-pyrido[3,2-b]indol-7-yl]propan-2-ol] | < 5
21 | Cn1nncc1-c1cnc2c3ccc(C(C)(C)O)cc3n(C(c3ccc(F)cc3)C3CCOCC3)c2c1 (single isomer, unassigned) [Example 66, 2-{5-[(4-Fluorophenyl)(oxan-4-yl)methyl]-3-(1-methyl-1H-1,2,3-triazol-5-yl)-5H-pyrido[3,2-b]indol-7-yl}propan-2-ol] | < 5
